These results are taken from paper PMC7906907, “Targeting STAT3 by a small molecule suppresses pancreatic cancer progression” (Oncogene, 2021).

For data set [1], the system named is normal cells (HPNE, HAF). Nature of the data set: MTS proliferation assay, normal cells. The class given is cell-based. As to conditions: 48 h. On the procedure:
Fig. 4 N4 suppresses pancreatic cancer cell proliferation and migration and induces apoptosis. A Pancreatic cancer cells (CAPAN-2, PANC-1, MIAPACA-2, BXPC-3, HPAC, and CFPAC-1) and normal cells (HPNE, HAF) were incubated with the indicated concentration of N4 for 48 h. MTS assays were performed to detect the N4-mediated inhibition of cell proliferation. Data are shown as mean ± SD, *P < 0.05, **P < 0.01, ***P < 0.001, ****P < 0.0001, n.s. not significant by one-way ANOVA followed by multiple comparisons. B, C CAPAN-2, PANC-1, and MIAPACA-2 cells were treated with N4 (B) or C188-9 (C) for 7 days. The cells fixed and stained, and colony numbers were calculated. Experiments were carried out in triplicate with identical results obtained. […] Apoptotic cells were analyzed as described in Materials and Methods. […] In F, after 48 h transfection, transfected cells were seeded in 96-well plates, and cells were enumerated at day 1, day 2, and day 4, In G, different cells transfected with different siRNA were treated with the indicated concentrations of N4, and cell viability measured after a 48 h treatment. Data are expressed as mean ± SD, *P < 0.05, ***P < 0.001, n.s. not significant by one-way ANOVA followed by multiple comparisons. […] Data are expressed as mean ± SD, *P < 0.05, ***P < 0.001, n.s. not significant; Student’s t tests were performed. […]
Background: Tetrazolium assays rely on reduction of a dye to a coloured formazan, in cell work by metabolically active cells.

Data set [2] concerns STAT3 nuclear translocation. The data set is described as follows: Immunofluorescence of STAT3 nuclear translocation. The class given is cell-based. As to conditions: PANC-1 cells, 2 μM for 24 h, then IL-6. On the procedure: Fig. 2 N4 inhibits STAT3 activation in pancreatic cancer cells. A PANC-1, CAPAN-2, and BXPC-3 cells were treated with the indicated concentrations of N4 for 24 h. Then, p-STAT3 (Y705), p-STAT3 (S727), and STAT3 were detected by western blot assays with glyceraldehyde 3-phosphate dehydrogenase (GAPDH) used as the loading control. B Pancreatic cancer cells were starved in a medium lacking fetal bovine serum (FBS; basic medium) for 24 h, and then pretreated with N4 in basic medium for 24 h. Then, stimulated with IL-6 (20 ng/mL) for 30 min and lysed for western blot analysis using the indicated antibodies. C Expression levels of STAT3 downstream genes were detected by western blot following treatment of PANC-1 and CAPAN-2 cells with N4. D PANC-1 cells were seeded and allowed to attach, and then pretreated with 2 μM of N4 in FBS-free medium for 24 h. The cells were stimulated for 30 min using IL-6 (20 ng/mL). […] The samples were photographed and analyzed. […] E After 24 h treatment with 2 μM N4, PANC-1 cells were stimulated with IL-6 (20 ng/mL) for 30 min, and the cytoplasmic and nuclear extractions were analyzed by western blot. p-STAT3 (Y705) was used to detect STAT3, and GAPDH and H3 were used as the cytoplasm and nucleus internal control, respectively.
Immunofluorescence staining was performed as previously described. […] Images were recorded by confocal microscopy (Leica).

Take `COc1cc2c(cc1C(=O)Nc1cccc3cccnc13)CCC1C(C)(C)C(=O)C(C#N)=C[C@]21C` (some centres unmarked) [N4]: the “effect on two normal cell types” value in data set [1] is recorded as “no significant effect”. Besides, in data set [2], the STAT3 nuclear translocation result is given as “substantially impaired”.
